Assay results reported in PubChem BioAssay (NCI).
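Method: 48-hour compound exposure of cells in 96-well plates, five concentrations, linear interpolation of endpoints. The concentration for full growth arrest is given as TGI.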

Assays:
Experiment in all cases: DTP human tumour cell line panel, 48 h
MALME-3M melanoma = test system: MALME-3M melanoma
IGROV1 ovarian = test system: IGROV1 ovarian
SNB-19 CNS = test system: SNB-19 CNS
CCRF-CEM leukemia = test system: CCRF-CEM leukemia
U251 CNS = test system: U251 CNS
K-562 leukemia = test system: K-562 leukemia
OVCAR-5 ovarian = test system: OVCAR-5 ovarian
NCI-H226 lung = test system: NCI-H226 lung
PC-3 prostate = test system: PC-3 prostate
HCC-2998 colon = test system: HCC-2998 colon
HCT-15 colon = test system: HCT-15 colon
KM12 colon = test system: KM12 colon
LOX IMVI melanoma = test system: LOX IMVI melanoma
A549 NSCLC = test system: A549 NSCLC
NCI-H522 lung = test system: NCI-H522 lung
NCI/ADR-RES ovarian = test system: NCI/ADR-RES ovarian
TK-10 renal = test system: TK-10 renal
SK-MEL-5 melanoma = test system: SK-MEL-5 melanoma
SN12C renal = test system: SN12C renal
MDA-MB-231 breast = test system: MDA-MB-231 breast
COLO 205 colon = test system: COLO 205 colon
DU-145 prostate = test system: DU-145 prostate
SF-295 CNS = test system: SF-295 CNS
MOLT-4 leukemia = test system: MOLT-4 leukemia
MCF7 breast = test system: MCF7 breast
HOP-62 NSCLC = test system: HOP-62 NSCLC
NCI-H23 lung = test system: NCI-H23 lung
CAKI-1 renal = test system: CAKI-1 renal
SR leukemia = test system: SR leukemia
SK-OV-3 ovarian = test system: SK-OV-3 ovarian
HCT-116 colon = test system: HCT-116 colon
OVCAR-8 ovarian = test system: OVCAR-8 ovarian
ACHN renal = test system: ACHN renal
HOP-92 NSCLC = test system: HOP-92 NSCLC
UACC-257 melanoma = test system: UACC-257 melanoma
SNB-75 CNS = test system: SNB-75 CNS
HS 578T breast = test system: HS 578T breast
HT29 colon = test system: HT29 colon
UO-31 renal = test system: UO-31 renal
MDA-MB-435 = test system: MDA-MB-435
EKVX NSCLC = test system: EKVX NSCLC
UACC-62 melanoma = test system: UACC-62 melanoma
NCI-H460 lung = test system: NCI-H460 lung
RPMI-8226 leukemia = test system: RPMI-8226 leukemia
MDA-N = test system: MDA-N
OVCAR-3 ovarian = test system: OVCAR-3 ovarian
SK-MEL-28 melanoma = test system: SK-MEL-28 melanoma
786-0 renal = test system: 786-0 renal
SW-620 colon = test system: SW-620 colon
OVCAR-4 ovarian = test system: OVCAR-4 ovarian
SK-MEL-2 melanoma = test system: SK-MEL-2 melanoma
BT-549 breast = test system: BT-549 breast
SF-268 CNS = test system: SF-268 CNS
M14 melanoma = test system: M14 melanoma
HL-60(TB) leukemia = test system: HL-60(TB) leukemia
SF-539 CNS = test system: SF-539 CNS
RXF 393 renal = test system: RXF 393 renal
T-47D breast = test system: T-47D breast

`C=C1CC(COc2ccc3ccc(=O)oc3c2)(c2ccccc2)OC1=O` (centres undefined) gave a TGI (MALME-3M melanoma) of 6.77 µM, a TGI (IGROV1 ovarian) of 3.36 µM and a TGI (SNB-19 CNS) of 28.5 µM. The TGI (CCRF-CEM leukemia) was 2.7 µM, the TGI (U251 CNS) was 22.2 µM and the TGI (K-562 leukemia) was 2.45 µM. For the same molecule, the TGI (OVCAR-5 ovarian) was 13 µM, the TGI (NCI-H226 lung) was 12.4 µM and the TGI (PC-3 prostate) was 7.58 µM. For the same molecule, the TGI (HCC-2998 colon) was 2.48 µM, the TGI (HCT-15 colon) was 4.13 µM and the TGI (KM12 colon) was 13.5 µM. The TGI (LOX IMVI melanoma) was 2.57 µM, the TGI (A549 NSCLC) was 27.8 µM and the TGI (NCI-H522 lung) was 2.29 µM. For the same molecule, the TGI (NCI/ADR-RES ovarian) was 12.4 µM, the TGI (TK-10 renal) was 2.99 µM and the TGI (SK-MEL-5 melanoma) was 2.85 µM. For the same molecule, the TGI (SN12C renal) was 8.23 µM, the TGI (MDA-MB-231 breast) was 6.88 µM and the TGI (COLO 205 colon) was 1.79 µM. The TGI (DU-145 prostate) was 7.21 µM, the TGI (SF-295 CNS) was 20.7 µM and the TGI (MOLT-4 leukemia) was 4.16 µM. For the same molecule, the TGI (MCF7 breast) was 2.78 µM, the TGI (HOP-62 NSCLC) was 26.9 µM and the TGI (NCI-H23 lung) was 3.5 µM. The TGI (CAKI-1 renal) was 2.52 µM, the TGI (SR leukemia) was greater than 31 µM and the TGI (SK-OV-3 ovarian) was 16.1 µM. For the same molecule, the TGI (HCT-116 colon) was 2 µM, the TGI (OVCAR-8 ovarian) was 7.9 µM and the TGI (ACHN renal) was 3.61 µM. It also gave a TGI (HOP-92 NSCLC) of 2.15 µM, a TGI (UACC-257 melanoma) of 4.05 µM and a TGI (SNB-75 CNS) of 12.2 µM. The TGI (HS 578T breast) was greater than 23.7 µM, the TGI (HT29 colon) was 2.27 µM and the TGI (UO-31 renal) was 9.76 µM. It also gave a TGI (MDA-MB-435) of 7.82 µM, a TGI (EKVX NSCLC) of 22 µM and a TGI (UACC-62 melanoma) of 2.92 µM. The TGI (NCI-H460 lung) was 28 µM, the TGI (RPMI-8226 leukemia) was 0.434 µM and the TGI (MDA-N) was 3.85 µM. It also gave a TGI (OVCAR-3 ovarian) of 3.36 µM, a TGI (SK-MEL-28 melanoma) of 6.12 µM and a TGI (786-0 renal) of 2.84 µM. It also gave a TGI (SW-620 colon) of 1.94 µM, a TGI (OVCAR-4 ovarian) of 3.22 µM and a TGI (SK-MEL-2 melanoma) of 4.18 µM. It also gave a TGI (BT-549 breast) of 2.95 µM, a TGI (SF-268 CNS) of 11.9 µM and a TGI (M14 melanoma) of 2.4 µM. The TGI (HL-60(TB) leukemia) was 0.708 µM.

`COc1c(O)cc2c(c1O)C1O[C@H](CO)C(O)[C@H](O)[C@H]1OC2=O` (some centres undefined) gave a TGI (MALME-3M melanoma) greater than 100 µM, a TGI (IGROV1 ovarian) greater than 100 µM and a TGI (SNB-19 CNS) greater than 100 µM. It also gave a TGI (CCRF-CEM leukemia) greater than 100 µM, a TGI (U251 CNS) greater than 100 µM and a TGI (K-562 leukemia) greater than 100 µM. It also gave a TGI (OVCAR-5 ovarian) greater than 100 µM, a TGI (NCI-H226 lung) greater than 100 µM and a TGI (PC-3 prostate) greater than 100 µM. It also gave a TGI (HCC-2998 colon) greater than 100 µM, a TGI (HCT-15 colon) greater than 100 µM and a TGI (KM12 colon) greater than 100 µM. It also gave a TGI (SF-539 CNS) greater than 100 µM, a TGI (RXF 393 renal) greater than 100 µM and a TGI (LOX IMVI melanoma) greater than 100 µM. It also gave a TGI (A549 NSCLC) greater than 100 µM, a TGI (T-47D breast) greater than 100 µM and a TGI (NCI-H522 lung) greater than 100 µM. It also gave a TGI (NCI/ADR-RES ovarian) greater than 100 µM, a TGI (TK-10 renal) greater than 100 µM and a TGI (SK-MEL-5 melanoma) greater than 100 µM. For the same molecule, the TGI (SN12C renal) was greater than 100 µM, the TGI (MDA-MB-231 breast) was greater than 100 µM and the TGI (COLO 205 colon) was greater than 100 µM. It also gave a TGI (DU-145 prostate) greater than 100 µM, a TGI (SF-295 CNS) greater than 100 µM and a TGI (MOLT-4 leukemia) greater than 100 µM. For the same molecule, the TGI (MCF7 breast) was greater than 100 µM, the TGI (HOP-62 NSCLC) was greater than 100 µM and the TGI (NCI-H23 lung) was greater than 100 µM. It also gave a TGI (CAKI-1 renal) greater than 100 µM, a TGI (SR leukemia) greater than 100 µM and a TGI (SK-OV-3 ovarian) greater than 100 µM. It also gave a TGI (HCT-116 colon) greater than 100 µM, a TGI (OVCAR-8 ovarian) greater than 100 µM and a TGI (ACHN renal) greater than 100 µM. It also gave a TGI (HOP-92 NSCLC) greater than 100 µM, a TGI (UACC-257 melanoma) greater than 100 µM and a TGI (SNB-75 CNS) greater than 100 µM. It also gave a TGI (HT29 colon) greater than 100 µM, a TGI (MDA-MB-435) greater than 100 µM and a TGI (NCI-H460 lung) greater than 100 µM. For the same molecule, the TGI (RPMI-8226 leukemia) was greater than 100 µM, the TGI (MDA-N) was greater than 100 µM and the TGI (OVCAR-3 ovarian) was greater than 100 µM. For the same molecule, the TGI (SK-MEL-28 melanoma) was greater than 100 µM, the TGI (786-0 renal) was greater than 100 µM and the TGI (SW-620 colon) was greater than 100 µM. The TGI (OVCAR-4 ovarian) was greater than 100 µM, the TGI (SK-MEL-2 melanoma) was greater than 100 µM and the TGI (BT-549 breast) was greater than 100 µM. The TGI (SF-268 CNS) was greater than 100 µM, the TGI (M14 melanoma) was greater than 100 µM and the TGI (HL-60(TB) leukemia) was greater than 100 µM.
